The results in this text go back to patent US10722578B2, “Methods and compositions for treating neuroblastoma” (The Children's Hospital of Philadelphia, priority 2008, dated 2020).

Structures are written as SMILES. Where “and” joins values, the source holds several entries; their conditions need not be identical. Identical values can stand only once. Entries after “also recorded” stand apart in the source; their conditions may differ. Like-named read-outs stand apart in the source and are kept apart here.

Data set [1] deals with neuroblastoma cell lines. Briefly: In vitro growth inhibition (RT-CES), panel of neuroblastoma cell lines. Format: cell-based, human. The conditions noted are these: 333 nM, 72 hours; for Inhibition of growth, cell lines with ALK amplification or mutations: compared with normal copy number wild type ALK lines. An excerpt:
A quantitative assay to evaluate growth inhibition in a multi-well was used in a parallel format to screen for cellular cytotoxicity. […] For FIG. 7, the biochemical consequences of ALK activation and downstream signaling pathways were studied in ALK-mutant lines.
(§1) To verify cell line integrity, all lines were routinely genotyped (AmpFLSTR® Identifiler® kit; Applied Biosystems) and mycoplasma tested.
It has been shown that mRNA knockdown of ALK in neuroblastoma cell lines with mutation or amplification is cytotoxic, and thus ALK inhibition might offer a tractable therapeutic target.

For data set [2], the system named is NB1 (WT amplification). The conditions noted are these: NB1, dose-dependent.
From the text: as §1

In data set [3] the test system is NB1643 (R1275Q). Conditions: NB1643, dose-dependent.
From the text: as §1

The test system of data set [4] is SH-SY5Y (F1174L). Conditions: did not occur until this dose.
From the text: as §1

For data set [5], the system named is SY5Y cells. Briefly: Antibody-dependent cell-mediated cytotoxicity assay, SY5Y targets. The conditions noted are these: SY5Y pre-incubated 48 hours with crizotinib, then ALK antibody, mean. The data set is classed as cell-based, human. On the procedure:
The Cyto Tox 96 Non-Radioactive Cytotoxicity Assay (Promega) was used to assess antibody-dependent cell mediated cytotoxicity. […] Non-adherent peripheral blood lymphocytes were then replated in complete RPMI containing 1000 IU/ml rhIL-2 (Chiron) and incubated overnight. The following day, effector cells were collected and washed. Target NB1 or SY5Y cells that had been grown on T75 flasks until 70-80% confluency were also harvested and washed. […] Control wells were plated according to the manufacturer's specifications. After a 4-hour incubation at 37° C., cell viability was assessed by an enzymatic assay allowing for the quantification of lactate dehydrogenase which is released upon cell lysis. The % cytotoxicity was calculated as follows: [(Experimental−Effector Spontaneous−Target Spontaneous)/(Target Maximum−Target Spontaneous)]×100. […] Results shown are representative of three independent experiments, and quoted as mean±standard deviation.

Data set [6] deals with SY5Y cells. Briefly: Propidium iodide staining, cell cycle analysis, SY5Y. The data set is classed as cell-based, human. The conditions noted are these: 1000 nM crizotinib, 10 μg/ml antibody, or both, mean.
The test system of data set [7] is SHSY5Y (F1174L) xenografts. The conditions noted are these: 100 mg/kg/day oral gavage, 4 weeks; end point tumor volume ≥1.5 cm^3 or treatment related death.
Data set [8] deals with NBSD (F1174L) xenografts. Conditions: 100 mg/kg/day oral gavage, 4 weeks.
Data set [9] relates to NBEBc1 (WT) xenografts. Conditions: 100 mg/kg/day oral gavage, 4 weeks.
Data set [10] relates to SKNAS (WT) xenografts. The conditions noted are these: 100 mg/kg/day oral gavage, 4 weeks.
Data set [11] concerns pSTAT3, pAKT, and pERK. Briefly: In vitro phosphoprotein detection (immunoblot), downstream signaling. Conditions: NB1 (wild type amplified).

In the case of `C[C@@H](Oc1cc(-c2cnn(C3CCNCC3)c2)cnc1N)c1c(Cl)ccc(F)c1Cl` [PF-02341066, crizotinib], the “Inhibition of growth, cell lines with normal copy number WT ALK” value in [1] is on record as “No cell lines with normal copy number WT ALK showed significant inhibition”. The “Sensitivity of R1275Q cell lines compared with F1174L cell lines” value in data set [1] is “more sensitive”; in data set [1] (listed as PF2341066) it was “R1275Q mutations were more sensitive than F1174L mutations; also recorded: significantly more sensitive”. The “Inhibition of growth, cell lines with ALK amplification or mutations” value in [1] is given as “significantly superior inhibition of growth”; in data set [1] (listed as PF2341066), “sensitive; also recorded: significantly more sensitive”. Moreover, the “Dose at which inhibition of proliferation occurred” value in data set [2] is 33 to 100 nM; in [3] it was 33 to 100 nM and 33 nM; in data set [4], 1000 nM. Moreover, the ADCC % cytotoxicity in [5] (effector:target 25:1) worked out at 33.7±2.5%; in data set [5] (effector:target 50:1), 55.7±9.3%. Besides, the “sub G0 fraction” value in [6] is given as “increased the sub G0 fraction, but to a smaller extent than seen with dual treatment”. Further, the Prolongation of survival in data set [7] turned out to be 7.7 days; in data set [8], 3.7 days; in data set [9], 5.1 days. Further, the “Prolongation of survival / days to reach tumor volume of 1.5 cm^3” value in data set [10] is “non-significant difference in days to reach a tumor volume of 1.5 cm^3”; in data set [10] (listed as PF-2341066), “neither a delay in tumor growth (P=0.87) or prolongation of survival”. Besides, in [11], the “Abrogation of phosphorylation of STAT3, AKT and ERK” value is recorded as “substantial abrogation”.
